Reference: patent US5049559A, “Thieno-triazolo-diazepine derivatives useful as anti-ischemic agents” (priority 1989, dated 1991)

Tests used:
[1] = test system: platelet aggregation induced by PAF; test: Inhibition of platelet aggregation induced by PAF; format: cell-based; settings: Oryctolagus cuniculus, male New Zealand rabbits, Table I
Protocol: 1) Inhibition of platelet aggregation induced by PAF
This experimentation was conducted according to the method of R. KINLOUGH. RATHBONE, J. P. CAZENAVE, M. PACKHAM and F. MUSTARD, Lab. Invest. 48, 98, 1980. In this test, New Zealand rabbits were used (male New Zealand rabbits of an average weight of 5 kg).
The determinations are made on a chrono-log Coultronics aggregometer, at […] coupled with a graphic recorder; the results of these determinations (in molecular concentration) are reported on the table I on the central column.

[2] = biological target: benzodiazepine receptors; test: Inhibition of the binding to benzodiazepine receptors; settings: rat brains, 1 hour 30 minutes at 4° C., tracers 3H-RO-15-1788 and 3H-RO-5-4864, Table I, read-out: BDZ receptors
Description: 2) Inhibition of the binding to benzodiazepine receptors
The interest of the previous experimentation depends on the results obtained in this experimentation: as a compound of the invention has a benzodiazepine like structure, it is important to check whether the specific benzodiazepine activity would not appear at the dose where platelet aggregation was inhibited.
Therefore, this experimentation has been conducted according to the method of MOHLER H. and RICHARD J. G. Agonist and antagonist benzodiazepine receptor interaction in vitro, Nature, vol. 294, 763-765, 1981.
This experimentation was conducted on rat brains incubated 1 hour 30 minutes at 4° C. using ^3 H-RO-15-1788 and ^3 H-RO-5-4864 (NEN) as tracers and […] and RO-5-4864 as reference antagonists.
The results in molecular concentration are reported in the table I, on the right hand column.

[3] = Global ischemia on gerbils; format: in vivo; settings: Meriones unguiculatus, 168 h, carotides clamped 10 minutes, hippocampes one week later, 3H-PK 11195, percentage of protection compared to control
Protocol: 3) Global ischemia on gerbils For this test, males gerbils were anaesthetized with brietal at the doses of 35 mg/kg IP; thereafter, both carotides were clamped for 10 minutes, then the clamping was released. Treated animals received each 10 mg/kg of the compounds of one of the examples. One week later, the animals were killed and both hippocampes were taken, weighed and frozen at -80° C. After crushing with 1 ml of TRIS-HCl pH 7.4 for 30 seconds, aliquots of each 50 μl of this preparation were incubed in each 1 ml of TRIS-HCl buffer containing ^3 H-PK 11195 at 2 nM (90 Ci/mmole, NENE, Germany) for 1 hour at 25° C. For each preparation, 3 determinations were made. The density of omega 3 sites (marked by the specific ^3 H-PK 11195 marker) are expressed in f-moles of PK 11195/mg of fresh tissues and converted in percentage of protection compared to control.

| Compound | IC50 [1] [nM] | IC50 [2] [nM] | inhibition in vivo at 10 mg/kg [3] [%] |
| --- | --- | --- | --- |
| Cc1nnc2n1-c1sc3c(c1C(c1ccccc1Cl)=NC2)CCN(C(=O)CSc1ccccc1C(F)(F)F)C3 [Example 19, 6-(2-chlorophenyl)-9-(2-trifluoromethylphenylthiomethylcarbonyl)-7,8,9, 10-tetrahydro-1-methyl-4H-pyrido [4',3':4,5] thieno [3,2-f] 1,2,4-triazolo[4,3-a] 1,4-diazepine] | 6.36 | 270 | 45.6 |
| Cc1nnc2n1-c1sc3c(c1C(c1ccccc1Cl)=NC2)CCN(C(=S)CSc1ccccc1C(F)(F)F)C3 [Example 20, 6-(2-chlorophenyl)-9-(2-trifluoromethylphenylthiomethylthiocarbonyl)-7,8,9, 10-tetrahydro-1-methyl-4H-pyrido [4',3':4,5] thieno [3,2-f] 1,2,4-triazolo [4,3-a] 1,4-diazepine] | 146 | 1600 | 32.7 |
| Cc1nnc2n1-c1sc3c(c1C(c1ccccc1Cl)=NC2)CCN(C(=O)CSc1cccc(C(F)(F)F)c1)C3 [Example 21, 6-(2-chlorophenyl)-9-(3-trifluoromethylphenylthiomethylcarbonyl)-7,8,9, 10-tetrahydro-1-methyl-4H-pyrido [4',3':4,5] thieno [3,2-f] 1,2,4-triazolo[4,3-a] 1,4-diazepine] | 8.66 | 810 | 34.1 |
| Cc1nnc2n1-c1sc3c(c1C(c1ccccc1Cl)=NC2)CCN(C(=S)CSc1cccc(C(F)(F)F)c1)C3 [Example 22, 6-(2-chlorophenyl)-9-(3-trifluoromethylphenylthiomethylthiocarbonyl)-7,8,9, 10-tetrahydro-1-methyl-4H-pyrido [4',3':4,5] thieno [3,2-f] 1,2,4-triazolo [4,3-a] 1,4-diazepine] | 8.18 | 610 | 48.1 |
| Cc1nnc2n1-c1sc3c(c1C(c1ccccc1Cl)=NC2)CCN(C(=O)CSc1ccc(C(F)(F)F)cc1)C3 [Example 23, 6-(2-chlorophenyl)-9-(4-trifluoromethylphenylthiomethylcarbonyl)-7,8,9, 10-tetrahydro-1-methyl-4H-pyrido [4',3':4,5] thieno [3,2-f] 1,2,4-triazolo[4,3-a] 1,4-diazepine] | 12.4 | 1200 | 37.5 |
| Cc1nnc2n1-c1sc3c(c1C(c1ccccc1Cl)=NC2)CCN(C(=S)CSc1ccc(C(F)(F)F)cc1)C3 [Example 24, 6-(2-chlorophenyl)-9-(4-trifluoromethylphenylthiomethylthiocarbonyl)-7,8,9, 10-tetrahydro-1-methyl-4H-pyrido [4',3':4,5] thieno [3,2-f] 1,2,4-triazolo [4,3-a] 1,4-diazepine] | 32.7 | 3300 | 38.7 |
| Cc1nnc2n1-c1sc3c(c1C(c1ccccc1Cl)=NC2)CCN(C(=O)CSc1ccc(F)cc1)C3 [Example 25, 6-(2-chlorophenyl)-9-(4-fluorophenylthiomethyl-carbonyl)-7,8,9, 10-tetrahydro-1-methyl-4H-pyrido [4',3':4,5] thieno [3,2-f] 1,2,4-triazolo[4,3-a] 1,4-diazepine] | 11.3 | 630 | 14.7 |
| Cc1nnc2n1-c1sc3c(c1C(c1ccccc1Cl)=NC2)CCN(C(=S)CSc1ccc(F)cc1)C3 [Example 26, 6-(2-chlorophenyl)-9-(4-fluorophenylthiomethyl-thiocarbonyl)-7,8,9, 10-tetrahydro-1-methyl-4H-pyrido [4',3':4,5] thieno [3,2-f] 1,2,4-triazolo[4,3-a] 1,4-diazepine] | 6.56 | 610 | 26.5 |
| Cc1nnc2n1-c1sc3c(c1C(c1ccccc1Cl)=NC2)CCN(C(=O)CSc1cccc(Cl)c1Cl)C3 [Example 27, 6-(2-chlorophenyl)-9-(2,3-dichlorophenylthiomethyl-carbonyl)-7,8,9, 10-tetrahydro-1-methyl-4H-pyrido [4',3':4,5] thieno [3,2-f] 1,2,4-triazolo[4,3-a] 1,4-diazepine] | 8.45 | 48000 | 33.3 |
| Cc1nnc2n1-c1sc3c(c1C(c1ccccc1Cl)=NC2)CCN(C(=S)CSc1cccc(Cl)c1Cl)C3 [Example 28, 6-(2-chlorophenyl)-9-(2,3-dichlorophenylthiomethyl-thiocarbonyl)-7,8,9, 10-tetrahydro-1-methyl-4H-pyrido [4',3':4,5] thieno [3,2-f] 1,2,4-triazolo[4,3-a] 1,4-diazepine] | 9.06 | 4300 | 35.3 |
| Cc1nnc2n1-c1sc3c(c1C(c1ccccc1Cl)=NC2)CCN(C(=O)CSc1ccc(Oc2ccccc2)cc1)C3 [Example 29, 6-(2-chlorophenyl)-9-(4-phenoxyphenylthiomethyl-carbonyl) 7,8,9, 10-tetrahydro-1-methyl-4H-pyrido [4',3':4,5] thieno [3,2-f] 1,2,4-triazolo[4,3-a] 1,4-diazepine] | 9.05 | 1230 | 51.6 |
| Cc1nnc2n1-c1sc3c(c1C(c1ccccc1Cl)=NC2)CCN(C(=S)CSc1ccc(Oc2ccccc2)cc1)C3 [Example 30, 6-(2-chlorophenyl)-9-(4-phenoxyphenylthiomethyl-thiocarbonyl)-7,8,9, 10-tetrahydro-1-methyl-4H-pyrido [4',3':4,5] thieno [3,2-f] 1,2,4-triazolo[4,3-a] 1,4-diazepine] | 104 | 360 | 16.1 |
| Cc1nnc2n1-c1sc3c(c1C(c1ccccc1Cl)=NC2)CCN(C(=O)CSc1ccco1)C3 [Example 31, 6-(2-chlorophenyl)-9-(2-furyl-thiomethyl-carbonyl)-7,8,9, 10-tetrahydro-1-methyl-4H-pyrido [4',3':4,5] thieno [3,2-f] 1,2,4-triazolo[4,3-a] 1,4-diazepine] | 7.1 | 230 | 36.2 |
| Cc1nnc2n1-c1sc3c(c1C(c1ccccc1Cl)=NC2)CCN(C(=S)CSc1ccco1)C3 [Example 32, 6-(2-chlorophenyl)-9-(2-furyl-thiomethyl-thiocarbonyl)-7,8,9, 10-tetrahydro-1-methyl-4H-pyrido [4',3':4,5] thieno [3,2-f] 1,2,4-triazolo[4,3-a] 1,4-diazepine] | 8.75 | 1300 | 30.3 |
| Cc1nnc2n1-c1sc3c(c1C(c1ccccc1Cl)=NC2)CCN(C(=O)CSc1cccs1)C3 [Example 33, 6-(2-chlorophenyl)-9-(2-thienyl-thiomethyl-carbonyl)-7,8,9, 10-tetrahydro-1-methyl-4H-pyrido [4',3':4,5] thieno [3,2-f] 1,2,4-triazolo[4,3-a] 1,4-diazepine] | 41.2 | 5700 | 24.8 |
| Cc1nnc2n1-c1sc3c(c1C(c1ccccc1Cl)=NC2)CCN(C(=S)CSc1cccs1)C3 [Example 34, 6-(2-chlorophenyl)-9-(2-thienyl-thiomethyl-thiocarbonyl)-7,8,9, 10-tetrahydro-1-methyl-4H-pyrido [4',3':4,5] thieno [3,2-f] 1,2,4-triazolo[4,3-a] 1,4-diazepine] | 128 | 720 | 34.7 |
